For 27 molecules, IC50 results are on record in patent US7009052B2, “Sulfonamide derivatives” (Warner Lambert Company LLC, priority 2003, dated 2006).

In this assay the target is T1, androgen receptor (Homo sapiens, UniProt P10275).
T1 sequence (P10275 1-920 Q868H): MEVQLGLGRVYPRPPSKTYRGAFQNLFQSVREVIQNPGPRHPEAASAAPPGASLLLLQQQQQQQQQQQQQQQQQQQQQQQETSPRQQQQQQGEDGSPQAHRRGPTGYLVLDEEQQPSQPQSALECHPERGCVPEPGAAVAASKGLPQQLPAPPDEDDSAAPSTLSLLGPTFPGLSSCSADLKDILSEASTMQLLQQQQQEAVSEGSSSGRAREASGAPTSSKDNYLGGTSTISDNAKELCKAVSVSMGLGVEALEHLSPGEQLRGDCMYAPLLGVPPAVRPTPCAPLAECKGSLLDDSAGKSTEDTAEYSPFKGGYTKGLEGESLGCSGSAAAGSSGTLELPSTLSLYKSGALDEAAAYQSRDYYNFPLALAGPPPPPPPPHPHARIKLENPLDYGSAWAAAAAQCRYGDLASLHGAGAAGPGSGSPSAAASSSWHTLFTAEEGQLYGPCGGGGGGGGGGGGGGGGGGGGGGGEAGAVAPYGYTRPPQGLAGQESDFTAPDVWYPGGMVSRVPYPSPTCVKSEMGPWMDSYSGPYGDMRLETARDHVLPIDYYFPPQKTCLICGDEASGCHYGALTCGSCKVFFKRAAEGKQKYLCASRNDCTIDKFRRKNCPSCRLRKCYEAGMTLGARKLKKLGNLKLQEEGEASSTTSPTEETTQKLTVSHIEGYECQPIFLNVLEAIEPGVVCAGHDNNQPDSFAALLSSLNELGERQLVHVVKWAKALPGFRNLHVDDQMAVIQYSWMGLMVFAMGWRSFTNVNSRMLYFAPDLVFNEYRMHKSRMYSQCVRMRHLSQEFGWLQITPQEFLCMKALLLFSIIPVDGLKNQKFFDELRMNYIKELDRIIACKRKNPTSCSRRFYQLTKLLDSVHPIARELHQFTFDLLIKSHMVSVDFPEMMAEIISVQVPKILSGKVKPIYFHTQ
The assay is described as follows: AR Antagonist Cell Assay (MMTV-luciferase reporter, DHT-induced). It counts as cell-based. The note with it: MDA-MB453-MMTV clone 54-19 cells, 100 pM DHT, 17 hr. As to the method:
The compounds ability to antagonize the effects of androgen on the androgen receptor were determined in the protocol described immediately below.
Experimental Procedure for AR Antagonist Cell Assay
Cell line: MDA-MB453-MMTV clone 54-19. This cell line is a stable transfected cell line with MDA-MB453 cell background (human breast tumor cell expressing high level of androgen receptor). A MMTV minimal promoter containing ARE was first cloned in front of a firefly luciferase reporter gene. Then the cascade was cloned into transfection vector pUV120puro. Electroporation method was used for transfecting MDA-MB-453 cell. Puromycin resistant stable cell line was selected.
Cell Culture Media and Reagents:
Culture medium: DMEM (high glucose, Gibco cat #: 11960-044), 10% FBS, and 1% L-glutamine
Plating medium: DMEM (phenol red free), 10% charcoal treated HyClone serum, 1% L-glutamine
Assay medium: DMEM (phenol red free), 1% charcoal treated HyClone serum, 1% L-glutamine, and 1% penicillin/streptomycin
3× luciferase buffer: 2% beta-mercaptoethanol, 0.6% ATP, 0.0135% luciferine in cell lysis buffer
• 1. Cells are maintained in culture medium, splitting cells when they reach 80–90% confluence • 2. To test compounds, 10,000 cells/well are plated to opaque 96 cell culture plate in 100 ul/well plating medium, culture for overnight at 37° C. in cell culture incubator • 3. Carefully remove plating medium, then add 80 ul/well of pre-warmed assay medium, add 10 ul/well testing compound (final concentration at 10 uM or 1 uM), incubate at 37° C. for 30 minutes • 4. Add 10 ul/well freshly prepared DHT (final concentration at 100 pM) to each well, incubate at 37° C. for 17 hr (overnight) • 5. Add 50 ul/well 3× luciferase buffer, incubate at room temperature for 5 minutes, then count on Luminometer The fold induction over background by 100 pM DHT in the absence of testing compounds is standardized as 100% and experimental result is expressed as percentage of inhibition by testing compounds. TABLE3
A general note: A reporter such as luciferase makes a cellular process visible.

Consider `CC(C)(C)CCNS(=O)(=O)c1ccc2[nH]c(=O)cc(C(F)(F)F)c2c1` [Example 122, 2-Oxo-4-trifluoromethyl-1,2-dihydroquinoline-6-sulfonic acid(3,3-dimethylbutyl)amide], for which inhibition was half-maximal at 1030 nM (IC50).
`Cc1cc2c(NS(=O)(=O)c3ccc4[nH]c(=O)cc(C(F)(F)F)c4c3)cccc2nn1` [Example 108, 2-Oxo-4-trifluoromethyl-1,2-dihydroquinoline-6-sulfonic acid(3-methylcinnolin-5-yl)amide] came in with an IC50 greater than 10000 nM.
The same measure for `Cn1c(=O)cc(C(F)(F)F)c2cc(S(=O)(=O)Nc3ccc(-n4ccc(C(F)(F)F)n4)cc3)ccc21` [Example 47, 1-Methyl-2-oxo-4-trifluoromethyl-1,2-dihydroquinoline-6-sulfonicacid [4-(3-trifluoromethylpyrazol-1-yl)phenyl]amide]: 2960 nM.
For the molecule `Cc1cccc(C)c1NS(=O)(=O)c1ccc2c(c1)c(C(F)(F)F)cc(=O)n2C` [Example 18, 1-Methyl-2-oxo-4-trifluoromethyl-1,2-dihydroquinoline-6-sulfonicacid (2,6-dimethylphenyl)amide], the IC50 is greater than 10000 nM.
The molecule `Cc1ccc(F)cc1NS(=O)(=O)c1ccc2c(c1)c(C(F)(F)F)cc(=O)n2C` [Example 30, 1-Methyl-2-oxo-4-trifluoromethyl-1,2-dihydroquinoline-6-sulfonicacid (5-fluoro-2-methylphenyl)amide] had an IC50 greater than 10000 nM.
`CCCCN(CCCC)S(=O)(=O)c1ccc2[nH]c(=O)cc(C(F)(F)F)c2c1` [Example 68, 2-Oxo-4-trifluoromethyl-1,2-dihydroquinoline-6-sulfonic aciddibutylamide]: half-maximal inhibition (IC50) required 410 nM.
Take `CSc1cccc(NS(=O)(=O)c2ccc3c(c2)c(C(F)(F)F)cc(=O)n3C)c1` [Example 29, 1-Methyl-2-oxo-4-trifluoromethyl-1,2-dihydroquinoline-6-sulfonicacid (3-methylsulfanylphenyl)amide]: inhibition was half-maximal at 3720 nM (IC50).
In the case of `Cn1c(=O)cc(C(F)(F)F)c2cc(S(=O)(=O)NCCc3cccs3)ccc21` [Example 54, 1-Methyl-2-oxo-4-trifluoromethyl-1,2-dihydroquinoline-6-sulfonicacid (2-thiophen-2-ylethyl)amide], half-maximal inhibition (IC50) was put at 5680 nM.
Next, `Cn1c(=O)cc(C(F)(F)F)c2cc(S(=O)(=O)N(CCO)Cc3ccccc3)ccc21` [Example 6, 1-Methyl-2-oxo-4-trifluoromethyl-1,2-dihydroquinoline-6-sulfonicacid benzyl(2-hydroxyethyl)-amide]: greater than 10000 nM; `CN(CCC#N)S(=O)(=O)c1ccc2[nH]c(=O)cc(C(F)(F)F)c2c1` [Example 77, 2-Oxo-4-trifluoromethyl-1,2-dihydroquinoline-6-sulfonic acid(2-cyanoethyl)methylamide]: 1040 nM; `COCCNS(=O)(=O)c1ccc2[nH]c(=O)cc(C(F)(F)F)c2c1` [Example 119, 2-Oxo-4-trifluoromethyl-1,2-dihydroquinoline-6-sulfonic acid(2-methoxyethyl)amide]: 4690 nM.
`Cn1c(=O)cc(C(F)(F)F)c2cc(S(=O)(=O)NCc3cc(Cl)ccc3F)ccc21` [Example 59, 1-Methyl-2-oxo-4-trifluoromethyl-1,2-dihydroquinoline-6-sulfonicacid 5-chloro-2-fluorobenzylamide] returned an IC50 greater than 10000 nM.
In the case of `CC(C)Oc1cccc(NS(=O)(=O)c2ccc3[nH]c(=O)cc(C(F)(F)F)c3c2)c1` [Example 105, 2-Oxo-4-trifluoromethyl-1,2-dihydroquinoline-6-sulfonic acid(3-isopropoxyphenyl)amide], 450 nM corresponded to half-maximal inhibition (IC50).
`C[C@@H](NS(=O)(=O)c1ccc2[nH]c(=O)cc(C(F)(F)F)c2c1)c1ccccc1` [Example 125, 2-Oxo-4-trifluoromethyl-1,2-dihydroquinoline-6-sulfonic acid(1-phenylethyl)amide] had an IC50 of 2940 nM.
For `CC(C)c1ccc(NS(=O)(=O)c2ccc3[nH]c(=O)cc(C(F)(F)F)c3c2)cc1` [Example 97, 2-Oxo-4-trifluoromethyl-1,2-dihydroquinoline-6-sulfonic acid(4-isopropylphenyl)amide], the IC50 amounted to 200 nM.
`O=c1cc(C(F)(F)F)c2cc(S(=O)(=O)NCc3cccc(Cl)c3)ccc2[nH]1` [Example 138, 2-Oxo-4-trifluoromethyl-1,2-dihydroquinoline-6-sulfonic acid3-chlorobenzylamide] gave an IC50 greater than 10000 nM.
`CCCCN(CC)S(=O)(=O)c1ccc2[nH]c(=O)cc(C(F)(F)F)c2c1` [Example 69, 2-Oxo-4-trifluoromethyl-1,2-dihydroquinoline-6-sulfonic acidbutylethylamide]: the IC50 was determined as 200 nM.
`COCCN(CCOC)S(=O)(=O)c1ccc2[nH]c(=O)cc(C(F)(F)F)c2c1` [Example 80, 2-Oxo-4-trifluoromethyl-1,2-dihydroquinoline-6-sulfonic acidbis(2-methoxyethyl)amide] yielded an IC50 greater than 10000 nM.
`O=c1cc(C(F)(F)F)c2cc(S(=O)(=O)NCc3c(F)cccc3F)ccc2[nH]1` [Example 139, 2-Oxo-4-trifluoromethyl-1,2-dihydroquinoline-6-sulfonic acid2,6-difluorobenzylamide] had an IC50 of 2980 nM.
The same measure for `COc1cc(NS(=O)(=O)c2ccc3c(c2)c(C(F)(F)F)cc(=O)n3C)cc(OC)c1` [Example 36, 1-Methyl-2-oxo-4-trifluoromethyl-1,2-dihydroquinoline-6-sulfonicacid (3,5-dimethoxyphenyl)-amide]: 2720 nM.
On to `Cc1ccccc1CNS(=O)(=O)c1ccc2[nH]c(=O)cc(C(F)(F)F)c2c1` [Example 124, 2-Oxo-4-trifluoromethyl-1,2-dihydroquinoline-6-sulfonic acid2-methylbenzylamide], for which the IC50 was found to be 4610 nM.
For the molecule `CCc1ccc(NS(=O)(=O)c2ccc3[nH]c(=O)cc(C(F)(F)F)c3c2)cc1` [Example 89, 2-Oxo-4-trifluoromethyl-1,2-dihydroquinoline-6-sulfonic acid(4-ethylphenyl)amide], half-maximal inhibition (IC50) was put at 360 nM.
For the molecule `Cc1cccc(Cl)c1CNS(=O)(=O)c1ccc2[nH]c(=O)cc(C(F)(F)F)c2c1` [Example 144, 2-Oxo-4-trifluoromethyl-1,2-dihydroquinoline-6-sulfonic acid2-chloro-6-methylbenzylamide], the midpoint of inhibition, the IC50, lay at 5530 nM.
Consider `Cn1c(=O)cc(C(F)(F)F)c2cc(S(=O)(=O)Nc3cccc4cccnc34)ccc21` [Example 34, 1-Methyl-2-oxo-4-trifluoromethyl-1,2-dihydroquinoline-6-sulfonicacid quinolin-8-ylamide], for which the IC50 is greater than 10000 nM.
Take `O=c1cc(C(F)(F)F)c2cc(S(=O)(=O)NCCc3cccs3)ccc2[nH]1` [Example 133, 2-Oxo-4-trifluoromethyl-1,2-dihydroquinoline-6-sulfonic acid(2-thiophen-2-ylethyl)amide]: half-maximal inhibition (IC50) required 1900 nM.
The same measure for `Cn1c(=O)cc(C(F)(F)F)c2cc(S(=O)(=O)Nc3cc4ccccc4cn3)ccc21` [Example 32, 1-Methyl-2-oxo-4-trifluoromethyl-1,2-dihydroquinoline-6-sulfonicacid isoquinolin-3-ylamide]: greater than 10000 nM; for `O=c1cc(C(F)(F)F)c2cc(S(=O)(=O)NCCSCc3c(F)cccc3Cl)ccc2[nH]1` [Example 154, 2-Oxo-4-trifluoromethyl-1,2-dihydroquinoline-6-sulfonic acid[2-(2-chloro-6-fluorobenzylsulfanyl)ethyl]amide]: 2180 nM.

What is called IC50 is the concentration that inhibits the measured activity by half. Low values mean inhibition by little substance, high ones a need for much substance.
